Patent US9963474B2, “Mitochondria-targeted dicarbonyl sequestering compounds” (MEDICAL RESEARCH COUNCIL, priority 2013, dated 2018)

Tests used:
[1] = Partition coefficients between PBS and octan-1-ol; format: physicochemical; details: octan-1-ol/PBS, means ± SE of 3 determinations, read-out: Partition coefficient (converted)
Experimental: RP-HPLC was performed using a Gilson 321 pump with a C18 column (Jupiter 300 Å, Phenomenex) with a Widepore C18 guard column (Phenomenex). Samples (1 ml) were injected through a 0.22 μm PVDF filter (Millex, Millipore). HPLC buffer A [0.1% TFA in water] and HPLC buffer B (90% acetonitrile and 0.1% TFA) were used and a gradient was run at 1 ml/min at room temperature as follows: 0-2 min—5% B; 2-17 min—5-100% B; 17-19 min—100% B; 19-22 min—100-5% B. Peaks were detected by absorbance at 220 nm (UV/Vis 151, Gilson) and by fluorescence (excitation and emission wavelengths of 344 and 433 nm; RF-10AXL, Shimadzu). Partition coefficients between PBS and octan-1-ol were determined as previously described.

[2] = system: RLM respiring on glutamate/malate; assay: Effect on respiration of isolated RLM (oxygen electrode); design: species or system rat
Experimental: (A, B) RLM respiring on glutamate/malate at 37° C. were incubated with various concentrations of MitoG for 7 min in an oxygen electrode to measure coupled respiration (A) before ADP was added to measure phosphorylating respiration (B). Data are the percentage of the respiration rates of untreated controls (dashed lines). (C and D) C2C12 cells (C) or BAECs [Bovine Aortic Endothelial Cells; Cell Applications Inc, San Diego, Calif.] (D) were incubated with MitoG for 24 h and cell survival was then determined using the MTS assay. Data are expressed as a percentage of the untreated controls (dashed line). (E-H) BAECs were incubated with MitoG for 2 h at 37° C. and the cellular oxygen consumption rate (OCR) after the sequential additions of oligomycin, FCCP and antimycin A/rotenone were then measured using a Seahorse XF24 analyser. (E) OCR due to ATP synthesis, (F) OCR due to proton leak, (G) reserve capacity and (H) non-mitochondrial oxygen consumption. […]
Rat liver mitochondria (RLM) were prepared at 4° C. in STE buffer [250 mM sucrose, 5 mM Tris and 1 mM EGTA, pH 7.4 (HCl)] by homogenisation and differential centrifugation. Protein concentration was determined using the biuret assay relative to bovine serum albumin (BSA) and was typically 40-60 mg/ml. […] Oxygen consumption rates were determined from the slopes using Chart v5.5.6. for Mac (AD Instruments, Australia). […]

[3] = system: horse-radish peroxidase (HRP); assay: Stability under oxidative conditions (HRP and hydrogen peroxide); format: physicochemical
Experimental: MitoG 100 μM was mixed with 0.07 U horse-radish peroxidase (HRP) in a 1 ml curvette containing 100 mM potassium phosphate buffer (pH 6.0) and 0.5% (w/v) hydrogen peroxide at room temperature. A reference curvette and a blank were similarly set up with DMSO in place of MitoG. Scanning UV/Vis spectra were then taken at 1 min, 5 min and 10 min after mixing using a spectrophotometer (Shimadzu UV-2501PC). Spectra of MitoG-containing mixtures were compared against the spectrum of the blank. To determine if any reaction observed could be prevented by the HRP inhibitor, NaN3 [58, 59] separate incubations were set up as above but containing 8 mg/ml NaN3 as well.
Oxidative degradation of o-phenylenediamine is known to result in the production of methylglyoxal and glyoxal. This oxidative degradation can lead to an overestimation of dicarbonyl levels in samples if o-phenylenediamine is used to try to quantify methylglyoxal and glyoxal levels in biological samples. To determine if MitoG could undergo similar oxidative degradation to methylglyoxal and glyoxal, MitoG was incubated with HRP and hydrogen peroxide in vitro. Scanning UV/Vis spectra of the reaction mixture were taken before and after the addition of HRP. HRP was used as a representative peroxidase that could catalyse an oxidative degradation in a cellular environment. […] These changes are prevented by the HRP inhibitor, NaN3.

- logD [1]: 0.38
- coupled respiration (proton leak) ([2]; 5 μM MitoG): slight increase in proton leak
- phosphorylating respiration ([2]; up to 5 μM MitoG): no effect
- degradation in the presence of HRP ([3]; 100 μM, 0.07 U HRP, 0.5% hydrogen peroxide, pH 6.0, room temperature): degrades in the presence of HRP
Structure (SMILES): Nc1ccc(OCCCCCC[P+](c2ccccc2)(c2ccccc2)c2ccccc2)cc1N [MitoG, (6-(3,4-Diaminophenoxy)hexyl)triphenylphosphonium chloride]
- oxidative degradation to methylglyoxal and glyoxal ([3]; HRP and hydrogen peroxide, product absorbs at 430 nm): does not undergo oxidative degradation to form methylglyoxal and glyoxal
